What was measured:
Experiment in all cases: relative viability (nuclei count vs DMSO), 5 days (fraction); higher = more cells survive
BAM7 + Pictilisib = compound: CCOC1=CC=CC=C1N=NC2=C(NN(C2=O)C3=NC(=CS3)C4=CC=CC=C4)C [BAM7] + CS(=O)(=O)N1CCN(Cc2cc3nc(-c4cccc5[nH]ncc45)nc(N4CCOCC4)c3s2)CC1 [Pictilisib] (partner 1 µM)
How it was run: (§1)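 Medians of duplicate plates are given as relative viability. That measure is the nuclei count in treated wells divided by the count in vehicle wells. Counts were taken on 4× images of lung cancer cell lines in 1536-well plates, 5 days after pin-tool dosing the day after seeding with one drug alone or a fixed anchor-drug dose plus five library-drug doses (not always all listed) in √10 steps.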

BAM7 + Bortezomib = compound: CCOC1=CC=CC=C1N=NC2=C(NN(C2=O)C3=NC(=CS3)C4=CC=CC=C4)C [BAM7] + CC(C)C[C@H](NC(=O)[C@H](Cc1ccccc1)NC(=O)c1cnccn1)B(O)O [Bortezomib] (partner 0.002 µM)
How it was run: as §1

BAM7 + Olaparib = compound: CCOC1=CC=CC=C1N=NC2=C(NN(C2=O)C3=NC(=CS3)C4=CC=CC=C4)C [BAM7] + O=C(c1cc(Cc2n[nH]c(=O)c3ccccc23)ccc1F)N1CCN(C(=O)C2CC2)CC1 [Olaparib] (partner 8 µM)
How it was run: as §1

[1] = compound: CCn1c(-c2nonc2N)nc2c(C#CC(C)(C)O)ncc(OC[C@H]3CCCNC3)c21 + Cc1nc(Nc2ncc(C(=O)Nc3c(C)cccc3Cl)s2)cc(N2CCN(CCO)CC2)n1 [Dasatinib] (partner 0.075 µM)
How it was run: as §1

Cell Line | relative viability (BAM7 + Pictilisib; first compound 0.5 µM) | relative viability (BAM7 + Pictilisib; first compound 5 µM) | relative viability (BAM7 + Pictilisib; first compound 15.81 µM) | relative viability (BAM7 + Pictilisib; first compound 50 µM) | relative viability (BAM7 + Bortezomib; first compound 0.5 µM) | relative viability (BAM7 + Bortezomib; first compound 5 µM) | relative viability (BAM7 + Bortezomib; first compound 15.81 µM) | relative viability (BAM7 + Bortezomib; first compound 50 µM) | relative viability (BAM7 + Olaparib; first compound 0.5 µM) | relative viability (BAM7 + Olaparib; first compound 5 µM) | relative viability (BAM7 + Olaparib; first compound 50 µM) | relative viability ([1]; first compound 0.01 µM) | relative viability ([1]; first compound 0.03162 µM) | relative viability ([1]; first compound 0.1 µM) | relative viability ([1]; first compound 0.3162 µM) | relative viability ([1]; first compound 1 µM) | relative viability (BAM7 + Olaparib; first compound 15.81 µM)
LCLC-97TM1 | 0.218 | 0.197 | 0.172 | 0.2 | 0.721 | 0.608 | 0.898 | 0.76 | 0.362 | 0.472 | 0.432 | 0.799 | 0.982 | 0.803 | 0.739 | 0.845 | –
LCLC-103H | 0.611 | 0.654 | 0.604 | 0.687 | 1.15 | 1.1 | 1.1 | 1.18 | 0.77 | 0.795 | 0.686 | 0.381 | 0.451 | 0.445 | 0.444 | 0.433 | 0.72
LOU-NH91 | 0.54 | 0.555 | 0.524 | 0.532 | 0.476 | 0.508 | 0.546 | 0.486 | 0.949 | 0.955 | 0.893 | 0.564 | 0.575 | 0.543 | 0.537 | 0.337 | 0.894
LU99A | 0.32 | 0.315 | 0.398 | 0.353 | 1.21 | 1.22 | 1.34 | 1.15 | 0.272 | 0.257 | 0.254 | 0.499 | 0.508 | 0.662 | 0.51 | 0.451 | 0.312
LXF-289 | 0.892 | 0.844 | 0.766 | 0.786 | 1.07 | 1.1 | 1.02 | 1.01 | 1.17 | 1.05 | 1.09 | 0.249 | 0.223 | 0.205 | 0.234 | 0.187 | 1.02
NCI-H23 | 0.55 | 0.52 | 0.499 | 0.542 | 1.23 | 1.05 | 0.933 | 1.12 | 0.374 | 0.271 | 0.291 | 0.798 | 0.631 | 0.795 | 1.05 | 0.884 | 0.258
NCI-H322M | 0.53 | 0.623 | 0.549 | 0.578 | 1.2 | 1.2 | 1.05 | 1.02 | 0.762 | 0.714 | 0.641 | 0.246 | 0.233 | 0.245 | 0.264 | 0.271 | 0.654
NCI-H441 | 0.433 | 0.47 | 0.528 | 0.519 | 0.48 | 0.453 | 0.464 | 0.447 | 0.76 | 0.523 | 0.574 | 0.585 | 0.593 | 0.499 | 0.637 | 0.505 | 0.561
NCI-H460 | 0.439 | 0.485 | 0.411 | 0.381 | 1.38 | 1.1 | 1.04 | 1.01 | 0.537 | 0.438 | 0.344 | 0.526 | 0.461 | 0.533 | 0.45 | 0.516 | 0.327
NCI-H520 | 0.273 | 0.3 | 0.264 | 0.324 | 0.625 | 0.75 | 0.441 | 0.708 | 0.401 | 0.432 | 0.344 | 0.223 | 0.2 | 0.181 | 0.159 | 0.134 | 0.342
NCI-H596 | 0.372 | 0.455 | 0.399 | 0.35 | 1.01 | 1.13 | 0.889 | 1.25 | 0.665 | 0.625 | 0.697 | 0.641 | 0.67 | 0.563 | 0.48 | 0.554 | 0.636
NCI-H647 | 0.49 | 0.511 | 0.478 | 0.541 | 1.11 | 0.936 | 1.03 | 1.1 | 0.711 | 0.67 | 0.524 | 0.193 | 0.224 | 0.184 | 0.152 | 0.164 | 0.549
NCI-H650 | 0.893 | 1.03 | 0.896 | 0.77 | 0.884 | 0.948 | 0.878 | 0.885 | 0.424 | 0.363 | 0.368 | 0.44 | 0.392 | 0.453 | 0.457 | 0.448 | 0.381
NCI-H661 | 0.406 | 0.426 | 0.452 | 0.423 | 0.807 | 0.738 | 0.656 | 0.827 | 0.796 | 0.855 | 0.725 | 0.996 | 0.86 | 0.9 | 0.751 | 0.764 | 0.716
NCI-H727 | 0.414 | 0.545 | 0.387 | 0.31 | 0.832 | 1.14 | 0.916 | 0.739 | 0.707 | 0.58 | 0.573 | 0.399 | 0.422 | 0.353 | 0.373 | 0.459 | 0.522
NCI-H838 | 0.487 | 0.421 | 0.449 | 0.441 | 0.771 | 0.961 | 0.631 | 1.1 | 0.876 | 0.776 | 0.758 | 0.29 | 0.267 | 0.283 | 0.296 | 0.279 | 0.797
NCI-H1355 | 0.462 | 0.41 | 0.384 | 0.435 | 1.2 | 1.16 | 1.13 | 1.11 | 0.753 | 0.725 | 0.718 | 0.64 | 0.66 | 0.738 | 0.682 | 0.755 | 0.679
NCI-H1437 | 0.722 | 0.434 | 0.318 | 0.63 | 0.537 | 0.412 | 0.395 | 0.551 | 0.557 | 0.546 | 0.492 | 0.381 | 0.359 | 0.391 | 0.385 | 0.354 | 0.526

From the supplement of paper PMC10307832
